Tests used:
Assay type in all cases: in vivo
barnyardgrass [1] = test: Test Example 1: herbicidal effects in preemergence treatment under submerged conditions; conditions: dose 2.52 g/a
Procedure, shortened: (§1)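 Scoring 0 (<5% mortality) to 5 (≥90%) was done three weeks after preemergence application to the water surface of submerged (4 cm) alluvial soil, doses given as g per are. Weeds were seeded and 2.5-leaf rice transplanted on the treatment day; greenhouse at 25–30 °C.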

ducksalad [2] = test: as above; conditions: dose 2.52 g/a
Procedure, shortened: as §1

bulrush [3] = test: as above; conditions: dose 2.52 g/a
Procedure, shortened: as §1

transplanted rice = test: Test Example 1: preemergence treatment under submerged conditions, effect on crop; conditions: dose 2.52 g/a
Procedure, shortened: as §1

common ragweed [4] = test: Test Example 3: herbicidal effects in soil treatment; conditions: dose 3.2 g/a
Procedure, shortened: (§2)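 Seeds were sown in sterilized diluvial soil and covered with about 1.5 cm of soil. Compounds, formulated as emulsifiable concentrates and diluted with water, were sprayed evenly over the soil surface at set doses in g/a. Herbicidal effect was scored on a rating scale three weeks later.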

beadstraw [5] = test: as above; conditions: dose 3.2 g/a
Procedure, shortened: as §2

giant foxtail [6] = test: as above; conditions: dose 3.2 g/a
Procedure, shortened: as §2

barnyardgrass [7] = test: as above; conditions: dose 3.2 g/a
Procedure, shortened: as §2

common lambsquater [8] = test: as above; conditions: dose 3.2 g/a
Procedure, shortened: as §2

Italian ryegrass [9] = test: as above; conditions: dose 3.2 g/a
Procedure, shortened: as §2

water foxtail [10] = test: as above; conditions: dose 3.2 g/a
Procedure, shortened: as §2

velvetleaf [11] = test: as above; conditions: dose 3.2 g/a
Procedure, shortened: as §2

redroot pigweed [12] = test: as above; conditions: dose 3.2 g/a
Procedure, shortened: as §2

posumbu knotweed [13] = test: as above; conditions: dose 3.2 g/a
Procedure, shortened: as §2

large crabgrass [14] = test: as above; conditions: dose 3.2 g/a
Procedure, shortened: as §2

wild oat [15] = test: as above; conditions: dose 3.2 g/a
Procedure, shortened: as §2

common chickweed [16] = test: as above; conditions: dose 3.2 g/a
Procedure, shortened: as §2

common ragweed [17] = test: Test Example 4: herbicidal effect in foliage treatment; conditions: dose 3.2 g/a
Procedure, shortened: (§3)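 14-day greenhouse-grown plants (25–30° C) sprayed on foliage with diluted EC; dose as g/a; effect graded after 3 weeks.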

beadstraw [18] = test: as above; conditions: dose 3.2 g/a
Procedure, shortened: as §3

giant foxtail [19] = test: as above; conditions: dose 3.2 g/a
Procedure, shortened: as §3

barnyardgrass [20] = test: as above; conditions: dose 3.2 g/a
Procedure, shortened: as §3

common lambsquater [21] = test: as above; conditions: dose 3.2 g/a
Procedure, shortened: as §3

Italian ryegrass [22] = test: as above; conditions: dose 3.2 g/a
Procedure, shortened: as §3

water foxtail [23] = test: as above; conditions: dose 3.2 g/a
Procedure, shortened: as §3

velvetleaf [24] = test: as above; conditions: dose 3.2 g/a
Procedure, shortened: as §3

redroot pigweed [25] = test: as above; conditions: dose 3.2 g/a
Procedure, shortened: as §3

posumbu knotweed [26] = test: as above; conditions: dose 3.2 g/a
Procedure, shortened: as §3

large crabgrass [27] = test: as above; conditions: dose 3.2 g/a
Procedure, shortened: as §3

wild oat [28] = test: as above; conditions: dose 3.2 g/a
Procedure, shortened: as §3

common chickweed [29] = test: as above; conditions: dose 3.2 g/a
Procedure, shortened: as §3

barnyardgrass [30] = test: Test Example 2: herbicidal effects during the vegetation period under submerged conditions; conditions: treatment during the vegetation period under submerged conditions; dose 2.52 g/a
Procedure, shortened: (§4)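 Barnyardgrass, bulrush and ducksalad were co-sown in alluvial soil flooded to 4 cm and grown in a greenhouse at 25 to 30° C. At the 1- or 2-leaf stage, water-diluted emulsifiable concentrates went onto the water surface at set doses (g/a). Herbicidal effect was scored three weeks later on a graded scale.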

ducksalad [31] = test: as above; conditions: treatment during the vegetation period under submerged conditions; dose 2.52 g/a
Procedure, shortened: as §4

bulrush [32] = test: as above; conditions: treatment during the vegetation period under submerged conditions; dose 2.52 g/a
Procedure, shortened: as §4

[33] = three weeks after the application

CN1COCN(Cc2ccccc2NS(=O)(=O)C(F)(F)F)C1=O [IV-1]
A: barnyardgrass, herbicidal effect (evaluation scale 0-5) (barnyardgrass [1]): 5 (mortality of 90% or above (nearly complete death)) | C: ducksalad, herbicidal effect (evaluation scale 0-5) (ducksalad [2]): 4 (mortality of at least 70% and less than 90%) | B: bulrush, herbicidal effect (evaluation scale 0-5) (bulrush [3]): 5 (mortality of 90% or above (nearly complete death)) | a: transplanted rice, effect on crop (evaluation scale 0-5) (transplanted rice): 0 (mortality of less than 5% (almost ineffective)) | herbicidal effect, J: common ragweed (common ragweed [4]): 2 (mortality of at least 20% and less than 40%) | herbicidal effect, O: beadstraw (beadstraw [5]): 0 (mortality of less than 5% (almost ineffective)) | herbicidal effect, E: giant foxtail (giant foxtail [6]): 3 (mortality of at least 40% and less than 70%) | herbicidal effect, A: barnyardgrass (barnyardgrass [7]): 5 (mortality of 90% or above (nearly complete death)) | herbicidal effect, L: common lambsquater (common lambsquater [8]): 0 (mortality of less than 5% (almost ineffective)) | herbicidal effect, H: Italian ryegrass (Italian ryegrass [9]): 0 (mortality of less than 5% (almost ineffective)) | herbicidal effect, G: water foxtail (water foxtail [10]): 5 (mortality of 90% or above (nearly complete death)) | herbicidal effect, I: velvetleaf (velvetleaf [11]): 3 (mortality of at least 40% and less than 70%) | herbicidal effect, K: redroot pigweed (redroot pigweed [12]): 0 (mortality of less than 5% (almost ineffective)) | herbicidal effect, M: posumbu knotweed (posumbu knotweed [13]): 0 (mortality of less than 5% (almost ineffective)) | herbicidal effect, D: large crabgrass (large crabgrass [14]): 4 (mortality of at least 70% and less than 90%) | herbicidal effect, F: wild oat (wild oat [15]): 0 (mortality of less than 5% (almost ineffective)) | herbicidal effect, N: common chickweed (common chickweed [16]): 0 (mortality of less than 5% (almost ineffective)) | J: common ragweed, herbicidal effect (common ragweed [17]; [33]): 1 (mortality of at least 5% and less than 20%) | O: beadstraw, herbicidal effect (beadstraw [18]; [33]): 3 (mortality of at least 40% and less than 70%) | E: giant foxtail, herbicidal effect (giant foxtail [19]; [33]): 3 (mortality of at least 40% and less than 70%) | A: barnyardgrass, herbicidal effect (barnyardgrass [20]; [33]): 4 (mortality of at least 70% and less than 90%) | L: common lambsquater, herbicidal effect (common lambsquater [21]; [33]): 0 (mortality of less than 5% (almost ineffective)) | H: Italian ryegrass, herbicidal effect (Italian ryegrass [22]; [33]): 3 (mortality of at least 40% and less than 70%) | G: water foxtail, herbicidal effect (water foxtail [23]; [33]): 5 (mortality of 90% or above (nearly complete death)) | I: velvetleaf, herbicidal effect (velvetleaf [24]; [33]): 5 (mortality of 90% or above (nearly complete death)) | K: redroot pigweed, herbicidal effect (redroot pigweed [25]; [33]): 0 (mortality of less than 5% (almost ineffective)) | M: posumbu knotweed, herbicidal effect (posumbu knotweed [26]; [33]): 0 (mortality of less than 5% (almost ineffective)) | D: large crabgrass, herbicidal effect (large crabgrass [27]; [33]): 4 (mortality of at least 70% and less than 90%) | F: wild oat, herbicidal effect (wild oat [28]; [33]): 0 (mortality of less than 5% (almost ineffective)) | N: common chickweed, herbicidal effect (common chickweed [29]; [33]): 1 (mortality of at least 5% and less than 20%) | A: barnyardgrass, herbicidal effect (evaluation scale 0-5) (barnyardgrass [30]): 4 (mortality of at least 70% and less than 90%) | C: ducksalad, herbicidal effect (evaluation scale 0-5) (ducksalad [31]): 4 (mortality of at least 70% and less than 90%) | B: bulrush, herbicidal effect (evaluation scale 0-5) (bulrush [32]): 5 (mortality of 90% or above (nearly complete death))

CC1(C)OCN(Cc2ccccc2N(S(=O)(=O)C(F)(F)F)S(=O)(=O)C(F)(F)F)C(=O)C1F (stereo not drawn) [II-37]
A: barnyardgrass, herbicidal effect (evaluation scale 0-5) (barnyardgrass [1]): 5 (mortality of 90% or above (nearly complete death)) | C: ducksalad, herbicidal effect (evaluation scale 0-5) (ducksalad [2]): 5 (mortality of 90% or above (nearly complete death)) | B: bulrush, herbicidal effect (evaluation scale 0-5) (bulrush [3]): 5 (mortality of 90% or above (nearly complete death)) | a: transplanted rice, effect on crop (evaluation scale 0-5) (transplanted rice): 2 (mortality of at least 20% and less than 40%) | J: common ragweed, herbicidal effect (evaluation scale 0-5) (common ragweed [4]): 5 (mortality of 90% or above (nearly complete death)) | O: beadstraw, herbicidal effect (evaluation scale 0-5) (beadstraw [5]): 4 (mortality of at least 70% and less than 90%) | E: giant foxtail, herbicidal effect (evaluation scale 0-5) (giant foxtail [6]): 3 (mortality of at least 40% and less than 70%) | A: barnyardgrass, herbicidal effect (evaluation scale 0-5) (barnyardgrass [7]): 5 (mortality of 90% or above (nearly complete death)) | L: common lambsquater, herbicidal effect (evaluation scale 0-5) (common lambsquater [8]): 0 (mortality of less than 5% (almost ineffective)) | H: Italian ryegrass, herbicidal effect (evaluation scale 0-5) (Italian ryegrass [9]): 0 (mortality of less than 5% (almost ineffective)) | G: water foxtail, herbicidal effect (evaluation scale 0-5) (water foxtail [10]): 5 (mortality of 90% or above (nearly complete death)) | I: velvetleaf, herbicidal effect (evaluation scale 0-5) (velvetleaf [11]): 0 (mortality of less than 5% (almost ineffective)) | K: redroot pigweed, herbicidal effect (evaluation scale 0-5) (redroot pigweed [12]): 3 (mortality of at least 40% and less than 70%) | M: posumbu knotweed, herbicidal effect (evaluation scale 0-5) (posumbu knotweed [13]): 0 (mortality of less than 5% (almost ineffective)) | D: large crabgrass, herbicidal effect (evaluation scale 0-5) (large crabgrass [14]): 5 (mortality of 90% or above (nearly complete death)) | F: wild oat, herbicidal effect (evaluation scale 0-5) (wild oat [15]): 4 (mortality of at least 70% and less than 90%) | N: common chickweed, herbicidal effect (evaluation scale 0-5) (common chickweed [16]): 2 (mortality of at least 20% and less than 40%) | J: common ragweed, herbicidal effect (common ragweed [17]; three weeks after application): 4 (mortality of at least 70% and less than 90%) | O: beadstraw, herbicidal effect (beadstraw [18]; three weeks after application): 4 (mortality of at least 70% and less than 90%) | E: giant foxtail, herbicidal effect (giant foxtail [19]; three weeks after application): 3 (mortality of at least 40% and less than 70%) | A: barnyardgrass, herbicidal effect (barnyardgrass [20]; three weeks after application): 5 (mortality of 90% or above (nearly complete death)) | L: common lambsquater, herbicidal effect (common lambsquater [21]; three weeks after application): 2 (mortality of at least 20% and less than 40%) | H: Italian ryegrass, herbicidal effect (Italian ryegrass [22]; three weeks after application): 3 (mortality of at least 40% and less than 70%) | G: water foxtail, herbicidal effect (water foxtail [23]; three weeks after application): 5 (mortality of 90% or above (nearly complete death)) | I: velvetleaf, herbicidal effect (velvetleaf [24]; three weeks after application): 3 (mortality of at least 40% and less than 70%) | K: redroot pigweed, herbicidal effect (redroot pigweed [25]; three weeks after application): 2 (mortality of at least 20% and less than 40%) | M: posumbu knotweed, herbicidal effect (posumbu knotweed [26]; three weeks after application): 3 (mortality of at least 40% and less than 70%) | D: large crabgrass, herbicidal effect (large crabgrass [27]; three weeks after application): 4 (mortality of at least 70% and less than 90%) | F: wild oat, herbicidal effect (wild oat [28]; three weeks after application): 1 (mortality of at least 5% and less than 20%) | N: common chickweed, herbicidal effect (common chickweed [29]; three weeks after application): 4 (mortality of at least 70% and less than 90%) | A: barnyardgrass, herbicidal effect (evaluation scale 0-5) (barnyardgrass [30]): 5 (mortality of 90% or above (nearly complete death)) | C: ducksalad, herbicidal effect (evaluation scale 0-5) (ducksalad [31]): 5 (mortality of 90% or above (nearly complete death)) | B: bulrush, herbicidal effect (evaluation scale 0-5) (bulrush [32]): 5 (mortality of 90% or above (nearly complete death))

From patent publication US20120029187A1, “HALOALKYLSULFONANILIDE DERIVATIVE” (Nissan Chemical Industries, Ltd., priority 2009, published 2012)
